Test results as given in publication PMC7849011, “Defining the Antimalarial Activity of Cipargamin in Healthy Volunteers Experimentally Infected with Blood-Stage Plasmodium falciparum” (Antimicrobial Agents and Chemotherapy, 2021).

Experiments:
P. falciparum 3D7 = test: Induced blood-stage malaria (IBSM) volunteer infection study: parasitemia by 18S rRNA qPCR; type: in vivo, Plasmodium falciparum; details: for Log10PRR48 (95%CI) / Parasite Clearance Half-Life (95%CI): 10 mg
Excerpt: A single cohort of eight subjects was inoculated intravenously with P. falciparum 3D7-infected human erythrocytes (approximately 1,800 viable parasites) as previously described ([24]). Parasite growth was monitored by collecting blood samples and performing quantitative PCR (qPCR) targeting the gene encoding P. falciparum 18S rRNA ([25]). […] The dose of cipargamin selected was predicted to be subtherapeutic based on preclinical modeling ([7]) and pharmacokinetic data obtained in previous clinical studies ([8]) and thus chosen to facilitate modeling to estimate the pharmacokinetic/pharmacodynamic relationship. To monitor total parasitemia, blood samples were collected for 18S rRNA qPCR before inoculation, on day 3, twice daily on days 4 to 6, pretreatment on day 7, and 4, 8, 12, 16, 24, 30, and 36 h posttreatment, twice daily from day 9 to day 11, and every 1 to 3 days until day 35. Blood samples for gametocytemia measurements were collected on day 11, every 1 to 3 days between day 15 and day 29, and on day 35. […] Analyses were performed in R version 3.3.0. The PRR and parasite clearance half-life were estimated using the slope of the optimal fit for the log-linear relationship of the parasitemia decay as described previously ([27]).

[1] = Population PK model (two-compartment); type: in vivo, human
Description: Data preparation, exploration, model definition, model evaluation and simulations were performed in R (version 3.5.1) and the R package IQRtools (version 1.0.6; IntiQuan, Basel, Switzerland) within the software package MonolixSuite 2018R2 (Lixoft, Antony, France). The MIC and the minimum parasiticidal concentration that achieves 90% of maximum effect (MPC90) were derived from the PK/PD model. Simulations were performed to predict the minimum effective single dose, defined as the dose that clears 10^9 parasites/ml. Further detail on PK/PD modeling methods is presented in Text S1.
Pharmacokinetic/Pharmacodynamic modelling methods and results […]
The objectives of the PK/PD modelling anal ysis w ere:
1. To develop a population PK model of cipar gamin in healthy subjects inoculated with blood stage P. falciparum .
2. To char acterize the PK/PD relationship between cipargamin pharmacokinetics and parasite cl ear ance in h eal th subjects inoculated with blood stage P. falcipar um .
3. To determine the minimum inhibitory concent ration (M IC ) of cipargamin .
4. To establish the minimum effective cipar gamin single dose required to kill 10 9
Data preparation, exploration, model definition, model evaluation and simulations were performed in R (version 3.5.1) and the R package IQRtools (version 1.0.6, IntiQuan GmbH, Basel, Switzerland) withi n the software package MonolixSuite2018R2 (Li xoft, Anton y, Fran ce) which implemen ts stochastic approx imation ex pectation-maximisation (SAEM) algorithm for parameter estimation.
One-, two- and three-compartment with different absorption and elimination models were tested. Zero- and first-order absorption models wi th or without lag time were examined. Data below the lower limit of quantitation ( LLO Q; 0.001 µg/ m L) were treated using a left - censoring method. Between subject vari abilit y ( BSV) of the PK parameters was assumed to be normally distributed on log -scale. The random effects across the par ameters within an individual were modelled according to a multivari ate normal distribution (MVN). BS V w as […]
supported by the data.The residual unexplained variabilit y (RUV) was tested using a proportional or combined error models.
Population PK/PD modelling
A sequential PK/PD modelling approach was used in which the empirical Bayes estimates of individual PK parameters were us ed as r egression parameters for the PK/P D model. The observations below the limit of detection (LOD; 10 parasites/mL) were mo del led using a l eft-censoring method. In this anal ysis, the changes in parasitemia over time in the presen ce of antimalarial dru g are ass umed to be a result of the differen ce b etween p ar asite growth rate (k grow ) and the r ate at wh ich parasites are killed b y the drug (k k ill ) with a baseline parasitemia (P L base ) at time t 0 (time of inoculation). Diff erent structural PK/PD models were tested to assess the relationship of cipar gamin plasma concentration on the parasite ki lling rate. The E max model assumed a direct effect of cipargamin plasma concent rations on parasite killing.
The turnover model assumed an indirect effect of cipargamin plasma concentrations on parasite killing due to lag in the PD processes (i.e. the kinetics of dru g-receptor binding). The effect compartment mod el assumed an indirect ef fect of cipar gamin plasm a concentration on parasite killing due to biophase equilibration. […]

[2] = 10 mg single oral dose, 8 healthy subjects, IBSM

With `C[C@H]1Cc2c([nH]c3cc(Cl)c(F)cc23)[C@@]2(N1)C(=O)Nc1ccc(Cl)cc12` [cipargamin] the “time to observed reduction in parasitemia” value (P. falciparum 3D7; 10 mg single oral dose) was at most 24 h, the “log10 parasite reduction ratio over 48 h postdose (PRR48), cohort-specific” value (P. falciparum 3D7; [2]) was 3.63 and the “parasite clearance half-life, cohort-specific” value (P. falciparum 3D7; [2]) was 3.99 h. The “time of parasite regrowth after dosing” value (P. falciparum 3D7; 10 mg single oral dose, all 8 subjects) was 3 to 8 days, the “Log10PRR48 (95%CI)” value (P. falciparum 3D7; subject 1) was 4.22 (3.15, 5.29) and the “Parasite Clearance Half-Life (95%CI)” value (P. falciparum 3D7; subject 1) was 3.42 (2.73, 4.59) h. For the same molecule, the “Log10PRR48 (95%CI)” value (P. falciparum 3D7; subject 2) was 5.84 (4.79, 6.90), the “Parasite Clearance Half-Life (95%CI)” value (P. falciparum 3D7; subject 2) was 2.47 (2.10, 3.02) h and the “Log10PRR48 (95%CI)” value (P. falciparum 3D7; subject 3) was 4.09 (3.45, 4.73). For the same molecule, the “Parasite Clearance Half-Life (95%CI)” value (P. falciparum 3D7; subject 3) was 3.53 (3.05, 4.19) h, the “Log10PRR48 (95%CI)” value (P. falciparum 3D7; subject 4) was 2.18 (1.62, 2.73) and the “Parasite Clearance Half-Life (95%CI)” value (P. falciparum 3D7; subject 4) was 6.64 (5.30, 8.90) h. For the same molecule, the “Log10PRR48 (95%CI)” value (P. falciparum 3D7; subject 5) was 4.23 (3.48, 4.98), the “Parasite Clearance Half-Life (95%CI)” value (P. falciparum 3D7; subject 5) was 3.42 (2.90, 4.15) h and the “Log10PRR48 (95%CI)” value (P. falciparum 3D7; subject 6) was 1.28 (0.85, 1.71). For the same molecule, the “Parasite Clearance Half-Life (95%CI)” value (P. falciparum 3D7; subject 6) was 11.39 (8.47, 17.37) h, the “Log10PRR48 (95%CI)” value (P. falciparum 3D7; subject 7) was 4.12 (3.22, 5.03) and the “Parasite Clearance Half-Life (95%CI)” value (P. falciparum 3D7; subject 7) was 3.51 (2.87, 4.49) h. The “Log10PRR48 (95%CI)” value (P. falciparum 3D7; subject 8) was 4.63 (4.34, 4.92), the “Parasite Clearance Half-Life (95%CI)” value (P. falciparum 3D7; subject 8) was 3.12 (2.93, 3.33) h and the “CL/F, estimate (RSE %)” value ([1]; final population PK model) was 5.5 (10.7) L/h. For the same molecule, the “Vc/F, estimate (RSE %)” value ([1]; final population PK model) was 64.4 (8.9) L, the “Q1/F, estimate (RSE %)” value ([1]; human, in vivo) was 12.9 (9.0) L/h and the “Vp1/F, estimate (RSE %)” value ([1]; human, in vivo) was 107 (4.8) L. The “ka, estimate (RSE %)” value ([1]; human, in vivo) was 0.919 (4.6) /h.
